Read-outs that look alike come from different tables or passages of the source.
Target: T1, human CXCR3 (N-delta 4) (Homo sapiens, UniProt P49682)
T1 construct: CD8 leader (N); Flag tag; expressed in transfected cells; membrane preparation
T1 sequence (P49682 5-368 limits assumed): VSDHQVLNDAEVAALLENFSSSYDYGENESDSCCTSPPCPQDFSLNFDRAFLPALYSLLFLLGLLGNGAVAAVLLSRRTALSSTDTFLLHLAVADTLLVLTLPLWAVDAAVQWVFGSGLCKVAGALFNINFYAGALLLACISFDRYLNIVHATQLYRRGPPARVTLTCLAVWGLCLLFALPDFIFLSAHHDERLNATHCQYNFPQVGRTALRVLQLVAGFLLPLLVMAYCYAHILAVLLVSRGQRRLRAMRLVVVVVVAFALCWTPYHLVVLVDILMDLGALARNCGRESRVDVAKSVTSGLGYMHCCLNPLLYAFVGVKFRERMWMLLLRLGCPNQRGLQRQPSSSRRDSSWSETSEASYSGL
Experiment: Human CXCR3 (N-delta 4) scintillation proximity assay (SPA), [125I] IP-10 binding to Ba/F3-hCXCR3 membranes
In short: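 Membranes from Ba/F3 cells expressing Flag-tagged hCXCR3 (N-delta 4), 2 μg/point, precoupled to WGA SPA beads. Binding of 25 pM [125I] IP-10 measured with titrated compounds, 3 hr at room temperature, in HEPES buffer with CaCl2, MgCl2, NaCl and 1.0% BSA; bound tracer read by scintillation counting.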

[1] = IC50 rating, [125I] IP-10 displacement, human CXCR3, read-out: IC50

| SMILES | IC50 [1] | IC50 (value given in the text as example, read-out: IC50 value) |
| --- | --- | --- |
| CC[C@H]1CN(c2ncc(Nc3c(N[C@@H](c4ccc(C)o4)C(C)(C)C)c(=O)c3=O)cc2Cl)CCN1C1CCN([C@H](CO)c2ccc(Cl)cc2)CC1 [Compound 109] | 25 to 100 nM |  |
| CC[C@H]1CN(c2ncc(Nc3c(N)c(=O)c3=O)cc2Cl)CCN1C1CCN(Cc2ccc(Cl)cc2F)CC1 [Compound 76] | < 25 nM |  |
| CCC(=O)Nc1cnc(N2CCN(C3CCN(Cc4ccc(Cl)cc4)CC3)[C@@H](C)C2)c(Cl)c1 [Compound 187] | 25 to 100 nM |  |
| CC[C@H]1CN(c2ncc(NS(C)(=O)=O)cc2Cl)CCN1C1CCN(Cc2ccc(Cl)cc2OC)CC1 [Compound 1] | < 25 nM | 0.8 nM |
| CC[C@H]1CN(c2ncc(NC3=NS(=O)(=O)N=C3NC3CC3)cc2Cl)CCN1C1CCN(Cc2ccc(Cl)cc2C(=N)NO)CC1 [Compound 236] | < 25 nM |  |
| CC[C@H]1CN(c2ncc(N)cc2Cl)CCN1C1CCN(Cc2ccc(Br)cc2F)CC1 [Compound 203] | < 25 nM |  |
| CC[C@H]1CN(c2ncc(NS(C)(=O)=O)cc2Cl)CCN1C1CCN(Cc2ccc(Br)cc2F)CC1 [Compound 8] | < 25 nM |  |
| CC[C@H]1CN(c2ncc([N+](=O)[O-])cc2Cl)CCN1C1CCN(Cc2ccc(Cl)cc2-c2nnc(Br)[nH]2)CC1 [Compound 230] | > 100 nM |  |
| CCNC(=O)Nc1cnc(N2C[C@H](C)N(C3CCN(Cc4ccc(Cl)cc4F)CC3)C[C@H]2C)c(Cl)c1 [Compound 191] | > 100 nM |  |
| CC[C@H]1CN(c2ncc(Nc3c(C(C)C)c(=O)c3=O)cc2Cl)CCN1C1CCN(Cc2ccc(Cl)cc2F)CC1 [Compound 84] | < 25 nM |  |
| CC[C@H]1CN(c2ncc(-n3ccnc3)cc2Cl)CCN1C1CCN([C@H](C(=O)OC)c2ccc(Cl)cc2)CC1 [Compound 229] | > 100 nM |  |
| CC[C@H]1CN(c2ncc(NS(C)(=O)=O)cc2Cl)CCN1C1CCN(Cc2ccc(Cl)cc2O)CC1 [Compound 34] | 25 to 100 nM |  |
| CC[C@H]1CN(c2ncc(N)cc2Cl)CCN1C1CCN(Cc2ccc(Cl)cc2)CC1 [Compound 202] | < 25 nM |  |
| C[C@H]1CN(c2ncc(NS(C)(=O)=O)cc2Cl)CCN1C1CCN(Cc2ccc(Cl)cc2)CC1 [Compound 32] | 25 to 100 nM |  |
| CC[C@H]1CN(c2ncc(NC3=NS(=O)(=O)N=C3NC3CCC3)cc2Cl)CCN1C1CCN(Cc2ccc(Cl)cc2F)CC1 [Compound 247] | < 25 nM |  |
| C[C@@H]1CN(c2ncc(Nc3c(NCC(F)(F)F)c(=O)c3=O)cc2Cl)[C@@H](C)CN1C1CCN(Cc2ccc(Br)cc2)CC1 [Compound 125] | > 100 nM |  |
| C[C@H]1CN(c2ncc(N)cc2Cl)CCN1C1CCN(Cc2ccc(Cl)cc2)CC1 [Compound 218] | > 100 nM |  |
| CC[C@H]1CN(c2ncc(Nc3c(NC4CC4)c(=O)c3=O)cc2Cl)CCN1C1CCN([C@@H](C(=O)NC)c2ccc(Cl)cc2)CC1 [Compound 101] | < 25 nM |  |
| CC[C@H]1CN(c2ncc(N)cc2Cl)CCN1C1CCN(Cc2ccc(Cl)cc2F)CC1 [Compound 206] | 25 to 100 nM |  |
| C[C@@H]1CN(c2ncc(Nc3c(NCC(F)(F)F)c(=O)c3=O)cc2Cl)[C@@H](C)CN1C1CCN(C2CCC(c3ccccc3)CC2)CC1 (stereo partly shown) [Compound 173] | > 100 nM |  |

| SMILES | IC50 [1] | IC50 (value given in the text as example, read-out: IC50 value) |
| --- | --- | --- |
| C[C@H]1CN(c2ncc(NC(=O)c3cccnc3)cc2Cl)CCN1C1CCN(Cc2ccc(Cl)cc2)CC1 [Compound 196] | > 100 nM |  |
| CC[C@H]1CN(c2ncc(Nc3c(NC4CC4)c(=O)c3=O)cc2Cl)CCN1C1CCN([C@H](C(=O)NC)c2ccc(Cl)cc2)CC1 [Compound 149] | > 100 nM |  |
| CCC(=O)[C@@H](c1ccc(Cl)cc1)N1CCC(N2CCN(c3ncc(NS(N)(=O)=O)cc3Cl)C[C@@H]2CC)CC1 [Compound 41] | > 100 nM |  |
| C[C@H]1CN(c2ncc(-n3cccn3)cc2Cl)CCN1C1CCN(Cc2ccc(Cl)cc2F)CC1 [Compound 225] | > 100 nM |  |
| CC[C@H]1CN(c2ncc(NS(=O)(=O)C3CC3)cc2Cl)CCN1C1CCN(Cc2ccc(Cl)cc2F)CC1 [Compound 22] | < 25 nM |  |
| CC[C@H]1CN(c2ncc(Nc3c(N(C)C)c(=O)c3=O)cc2Cl)CCN1C1CCN([C@H](C(=O)NC)c2ccc(Cl)cc2)CC1 [Compound 128] | > 100 nM |  |
| CC[C@H]1CN(c2ncc(NS(C)(=O)=O)cc2Cl)CCN1C1CCN(Cc2ccc(Br)cc2)CC1 [Compound 5] | < 25 nM |  |
| CC[C@H]1CN(c2cc(N)c(N)cc2Cl)CCN1C1CCN(Cc2ccc(Cl)cc2F)CC1 [Compound 226] | > 100 nM |  |
| CC[C@H]1CN(c2ncc(NC3=NS(=O)(=O)N=C3NCC(C)(C)C)cc2Cl)CCN1C1CCN(Cc2ccc(Cl)cc2C#N)CC1 [Compound 278] | > 100 nM |  |
| C[C@H]1CN(c2ncc(NS(C)(=O)=O)cc2Cl)CCN1C1CCN(Cc2ccc(C(F)(F)F)cc2F)CC1 [Compound 64] | > 100 nM |  |
| CCNC(=O)Nc1cnc(N2CCN(C3CCN(Cc4ccc(Cl)cc4F)CC3)[C@@H](CC)C2)c(Cl)c1 [Compound 183] | < 25 nM |  |
| CC[C@H]1CN(c2ncc(NC3=NS(=O)(=O)N=C3NCCO)cc2Cl)CCN1C1CCN(Cc2ccc(OC(F)(F)F)cc2)CC1 [Compound 239] | < 25 nM |  |
| CC[C@H]1CN(c2ncc(NC3=NS(=O)(=O)N=C3N(C)C)cc2Cl)CCN1C1CCN(Cc2ccc(Cl)cc2C(=N)NO)CC1 [Compound 256] | 25 to 100 nM |  |
| CC[C@H]1CN(c2ncc(Nc3c(NC4CC4)c(=O)c3=O)cc2Cl)CCN1C1CCN(Cc2ccc(Cl)cc2C(=O)OC)CC1 [Compound 91] | < 25 nM |  |
| CC[C@H]1CN(c2ncc(NS(C)(=O)=O)cc2Cl)CCN1C1CCN(Cc2ccc(OC(F)F)cc2)CC1 [Compound 13] | < 25 nM |  |
| C[C@@H]1CN(c2ncc(Nc3c(NCC(F)(F)F)c(=O)c3=O)cc2Cl)[C@@H](C)CN1C1CCN(C2CCCC(C(F)(F)F)C2)CC1 (stereo partly shown) [Compound 145] | > 100 nM |  |
| CC(=O)Nc1cnc(N2CCN(C3CCN(Cc4ccc(Cl)cc4)CC3)[C@@H](C)C2)c(Cl)c1 [Compound 181] | < 25 nM |  |
| CC[C@H]1CN(c2ncc(NS(C)(=O)=O)cc2Cl)CCN1C1CCN(Cc2c(F)cc(F)cc2F)CC1 [Compound 47] | > 100 nM |  |
| CC[C@H]1CN(c2ncc(NC(=O)C(C)C)cc2Cl)CCN1C1CCN(Cc2ccc(Cl)cc2F)CC1 [Compound 178] | < 25 nM |  |
| CC[C@H]1CN(c2ncc(NS(C)(=O)=O)cc2Cl)CCN1C1CCN(Cc2ccc(Cl)cc2N)CC1 [Compound 9] | < 25 nM |  |

| SMILES | IC50 [1] | IC50 (value given in the text as example, read-out: IC50 value) |
| --- | --- | --- |
| CC[C@H]1CN(c2ncc(Nc3c(NC4CCC4)c(=O)c3=O)cc2Cl)CCN1C1CCN(C(=O)c2ccc(Cl)cc2)CC1 [Compound 107] | 25 to 100 nM |  |
| CC[C@H]1CN(c2ncc(Nc3c(NC4CC4)c(=O)c3=O)cc2Cl)CCN1C1CCN(Cc2ccc(Cl)cc2[N+](=O)[O-])CC1 [Compound 99] | < 25 nM |  |
| C[C@@H]1CN(c2ncc(Nc3c(NCC(F)(F)F)c(=O)c3=O)cc2Cl)[C@@H](C)CN1C1CCN(C2CCCC(C(F)(F)F)C2)CC1 (stereo partly shown) [Compound 172] | > 100 nM |  |
| CC[C@H]1CN(c2ncc(Nc3ncccn3)cc2Cl)CCN1C1CCN(Cc2ccc(Cl)cc2F)CC1 [Compound 211] | 25 to 100 nM |  |
| CC[C@H]1CN(c2ncc(NC3=NS(=O)(=O)N=C3N)cc2Cl)CCN1C1CCN(Cc2ccc(Cl)cc2-c2ncon2)CC1 [Compound 265] | > 100 nM |  |
| C[C@@H]1CN(c2ncc(Nc3c(NCC(F)(F)F)c(=O)c3=O)cc2Cl)[C@@H](C)CN1C1CCN(Cc2ccccc2Cl)CC1 [Compound 155] | > 100 nM |  |
| CC[C@H]1CN(c2ncc(NS(C)(=O)=O)cc2Cl)CCN1C1CCN(Cc2ccc(OC)cc2OC)CC1 [Compound 18] | < 25 nM |  |
| CC1CCCC(N2CCC(N3C[C@H](C)N(c4ncc(Nc5c(NCC(F)(F)F)c(=O)c5=O)cc4Cl)C[C@H]3C)CC2)C1 (stereo partly shown) [Compound 176] | > 100 nM |  |
| CC[C@H]1CN(c2ncc(NC3=NS(=O)(=O)N=C3NC3CC3)cc2Cl)CCN1C1CCN(Cc2ccc(Cl)cc2F)CC1 [Compound 235] | < 25 nM |  |
| CC[C@H]1CN(c2ncc(Nc3c(N4CCC4)c(=O)c3=O)cc2Cl)CCN1C1CCN(Cc2ccc(Cl)cc2F)CC1 [Compound 93] | < 25 nM |  |
| CC[C@H]1CN(c2ncc(NC3=NS(=O)(=O)N=C3NCCO)cc2Cl)CCN1C1CCN(Cc2ccc(F)c(F)c2)CC1 [Compound 257] | 25 to 100 nM |  |
| C[C@@H]1CN(c2ncc(Nc3c(NCC(F)(F)F)c(=O)c3=O)cc2Cl)[C@@H](C)CN1C1CCN(Cc2ccc(Cl)cc2)CC1 [Compound 98] | < 25 nM |  |
| CC[C@H]1CN(c2ncc(NC(=O)NC)cc2Cl)CCN1C1CCN(Cc2ccc(Cl)cc2F)CC1 [Compound 182] | < 25 nM |  |
| CC[C@H]1CN(c2ncc(NS(C)(=O)=O)cc2Cl)CCN1C1CCN(Cc2ccc(F)cc2)CC1 [Compound 25] | 25 to 100 nM |  |
| CC[C@H]1CN(c2ncc(N(S(C)(=O)=O)S(C)(=O)=O)cc2Cl)CCN1C1CCN(Cc2ccc(Cl)cc2F)CC1 [Compound 61] | > 100 nM |  |
| C[C@H]1CN(c2ncc(NC(=O)C3CC3)cc2Cl)CCN1C1CCN(Cc2ccc(Cl)cc2)CC1 [Compound 184] | < 25 nM |  |
| C[C@@H]1CN(c2ncc(Nc3c(NCC(F)(F)F)c(=O)c3=O)cc2Cl)[C@@H](C)CN1C1CCN(Cc2ccco2)CC1 [Compound 142] | > 100 nM |  |
| C[C@@H]1CN(c2ncc(NC3C(=O)C(=O)C3NCC(F)(F)F)cc2Cl)[C@@H](C)CN1C1CCN(Cc2ccc3ccccc3c2)CC1 (stereo partly shown) [Compound 122] | > 100 nM |  |
| C[C@@H]1CN(c2ncc(Nc3c(NCC(F)(F)F)c(=O)c3=O)cc2Cl)[C@@H](C)CN1C1CCN(CCCC2CCCCC2)CC1 [Compound 118] | > 100 nM |  |
| CC[C@H]1CN(c2ncc(NS(C)(=O)=O)cc2Cl)CCN1C1CCN(Cc2ccc(Cl)cc2-c2nnn[nH]2)CC1 [Compound 36] | 25 to 100 nM |  |

Reference: patent US7566718B2, “Amine-linked pyridyl and phenyl substituted piperazine-piperidines with CXCR3 antagonist activity” (Schering Corporation, priority 2005, dated 2009)
